Legend:
sicklepod = experiment: Herbicidal activity, cyanamide and citric acid, pre-emergence, covered pots; format: in vivo, Senna obtusifolia; conditions: C6H8O7 150 mg/kg soil
Procedure: (§1) The weeds used in these tests were grown from a standard weed seed pack of common annual and perennial weeds representing an extreme weed situation. The weeds included crabgrass (Digitaria sanguinalis), yellow nutsedge (Cyperus esculentus), […] (Ipomoea spp.), pigweed (Amaranthus spp.), and other annual weeds. Observations of the effects on the weed population as a whole were made, and individual observations were made for crabgrass, yellow nutsedge, sicklepod, morningglory, and pigweed. Stock solutions of hydrogen cyanamide at 1.25% by weight and citric acid at 5.0% by weight, both in water, were prepared, the hydrogen cyanamide from a phosphate-buffered 50% aqueous solution. […] Data analyses were performed in the same manner as Example 1. The results expressed in weeds per pot are listed in Table XIV for all weeds, Table XV for crabgrass, Table XVI for yellow nutsedge, Table XVII for sicklepod, Table XVIII for morningglory, and Table XIX for pigweed, all at various application rates for hydrogen cyanamide, with and without citric acid.

morningglory = experiment: as above; format: in vivo, Ipomoea spp.; conditions: C6H8O7 150 mg/kg soil
Procedure: as §1

yellow nutsedge = experiment: as above; format: in vivo, Cyperus esculentus; conditions: C6H8O7 150 mg/kg soil
Procedure: as §1

combined weed species = experiment: as above; format: in vivo; conditions: C6H8O7 150 mg/kg soil
Procedure: as §1

weed combination = experiment: Herbicidal activity of citric acid alone, pre-emergence, covered pots; format: in vivo
Procedure: The weeds used in these tests were the same as those used in Example 4, and observations were made of the effects on individual weeds as well as the weed population as a whole.
A stock solution of citric acid was made in the manner described in Example 4, and all other test parameters were likewise the same as in Example 4. Weed counts were taken from the various pots at intervals of 7, 12, and 28 days after application of the citric acid, and data analyses were performed in the same manner as Example 1.

crabgrass = experiment: Herbicidal activity, cyanamide and citric acid, pre-emergence, covered pots; format: in vivo, Digitaria sanguinalis; conditions: C6H8O7 150 mg/kg soil
Procedure: as §1

What does the source list for O=C(O)CC(O)(CC(=O)O)C(=O)O [C6H8O7, 2-hydroxy-1,2,3-propanetricarboxylic acid]?
Weeds Per Pot: Sicklepod (sicklepod; 13 d after treatment): 4.6; Weeds Per Pot: Sicklepod (sicklepod; 19 d after treatment): 5.6; Weeds Per Pot: Sicklepod (sicklepod; 26 d after treatment): 5.3; Weeds Per Pot: Morningglory (morningglory; 13 d after treatment): 1.1; Weeds Per Pot: Morningglory (morningglory; 19 d after treatment): 0.9; Weeds Per Pot: Morningglory (morningglory; 26 d after treatment): 5.3; Weeds Per Pot: Yellow Nutsedge (yellow nutsedge; 13 d after treatment): 0.7; Weeds Per Pot: Yellow Nutsedge (yellow nutsedge; 19 d after treatment): 0.9; Weeds Per Pot: Yellow Nutsedge (yellow nutsedge; 26 d after treatment): 0.9; Weeds Per Pot (combined weed species) (combined weed species; 9 d after treatment): 10.6; Weeds Per Pot (combined weed species) (combined weed species; 13 d after treatment): 15.0; Weeds Per Pot (combined weed species) (combined weed species; 19 d after treatment): 16.5; Weeds Per Pot (combined weed species) (combined weed species; 26 d after treatment): 16.0; Weeds Per Pot (weed combination) (weed combination; 7 d after treatment, citric acid 50 mg/kg soil): 16.6; Weeds Per Pot (weed combination) (weed combination; 7 d after treatment, citric acid 100 mg/kg soil): 11.1; Weeds Per Pot (weed combination) (weed combination; 7 d after treatment, citric acid 150 mg/kg soil): 14.0; Weeds Per Pot (weed combination) (weed combination; 7 d after treatment, citric acid 200 mg/kg soil): 12.2; Weeds Per Pot (weed combination) (weed combination; 7 d after treatment, citric acid 250 mg/kg soil): 11.5; Weeds Per Pot (weed combination) (weed combination; 12 d after treatment, citric acid 50 mg/kg soil): 29.8; Weeds Per Pot (weed combination) (weed combination; 12 d after treatment, citric acid 100 mg/kg soil): 25.5; Weeds Per Pot (weed combination) (weed combination; 12 d after treatment, citric acid 200 mg/kg soil): 20.6; Weeds Per Pot (weed combination) (weed combination; 28 d after treatment, citric acid 50 mg/kg soil): 28.0; Herbicidal activity of citric acid (weed combination; pre-emergence, covered pots): negligible except at extremely high application rates; Weeds Per Pot: Crabgrass (crabgrass; 9 d after treatment): 4.6; Weeds Per Pot: Crabgrass (crabgrass; 13 d after treatment): 8.6; Weeds Per Pot: Crabgrass (crabgrass; 19 d after treatment): 9.3; Weeds Per Pot: Crabgrass (crabgrass; 26 d after treatment): 8.1
